Results: PubChem BioAssay (NCI)
“And” between values parts separate entries of the source, which are not always exact repeats. Identical values can stand only once.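 Values below derive from 48-hour exposures of cells grown in 96-well plates, with endpoints linearly interpolated between the two concentrations bracketing the appropriate inhibition level. Here, GI50 denotes the concentration required for 50% inhibition of growth. At the TGI there is no net growth.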

Assays:
Experiment in all cases: DTP human tumour cell line panel, 48 h
OVCAR-5 ovarian = tested on: OVCAR-5 ovarian
SK-OV-3 ovarian = tested on: SK-OV-3 ovarian
IGROV1 ovarian = tested on: IGROV1 ovarian
NCI/ADR-RES ovarian = tested on: NCI/ADR-RES ovarian
SK-MEL-28 melanoma = tested on: SK-MEL-28 melanoma
OVCAR-4 ovarian = tested on: OVCAR-4 ovarian
MALME-3M melanoma = tested on: MALME-3M melanoma
COLO 205 colon = tested on: COLO 205 colon
DU-145 prostate = tested on: DU-145 prostate
786-0 renal = tested on: 786-0 renal

SMILES	GI50 (OVCAR-5 ovarian)	TGI (OVCAR-5 ovarian)	GI50 (SK-OV-3 ovarian)	TGI (SK-OV-3 ovarian)	GI50 (IGROV1 ovarian)	TGI (IGROV1 ovarian)	GI50 (NCI/ADR-RES ovarian)	TGI (NCI/ADR-RES ovarian)	GI50 (SK-MEL-28 melanoma)	TGI (SK-MEL-28 melanoma)	GI50 (OVCAR-4 ovarian)	TGI (OVCAR-4 ovarian)	GI50 (MALME-3M melanoma)	TGI (MALME-3M melanoma)	GI50 (COLO 205 colon)	TGI (COLO 205 colon)	GI50 (DU-145 prostate)	TGI (DU-145 prostate)	GI50 (786-0 renal)	TGI (786-0 renal)
CCOc1ccc(-c2nc3ccc(-c4nc5ccc(N6CCN(C)CC6)cc5[nH]4)cc3[nH]2)cc1	1.47 µM	3.07 µM	0.379 µM and 0.478 µM	1.84 µM and 1.86 µM	0.514 µM	2.44 µM	5.4 µM	> 100 µM	0.77 µM	2.13 µM	0.219 µM	0.838 µM	0.0329 µM	0.551 µM	0.117 µM	1.26 µM	0.402 µM	1.57 µM	0.527 µM and 0.198 µM	1.57 µM and 0.809 µM
CCOC(=O)Cc1csc(NC(=O)C(OC(=O)c2ccc(Cl)cc2)c2ccccc2)n1 (stereo unspecified)	38.5 µM	> 100 µM	> 100 µM	> 100 µM	47 µM	> 100 µM	41.1 µM	> 100 µM	25.2 µM	69.2 µM	40.3 µM	> 100 µM	47.9 µM	> 100 µM	38.3 µM	> 100 µM	72.7 µM	> 100 µM	42.8 µM	> 100 µM
Cc1ccc(-c2cc(C(=O)Nc3ccc(S(=O)(=O)N4CCCCC4)cc3)[nH]n2)c(O)c1	> 100 µM	> 100 µM	> 100 µM	> 100 µM	> 100 µM	> 100 µM	> 100 µM	> 100 µM	> 100 µM	> 100 µM	> 100 µM	> 100 µM	> 100 µM	> 100 µM	> 100 µM	> 100 µM	> 100 µM	> 100 µM	> 100 µM	> 100 µM
Oc1nc(N2CCOCC2)sc1/C=C1\C=Nc2ccccc21	> 100 µM	> 100 µM	> 100 µM	> 100 µM	> 100 µM	> 100 µM	> 100 µM	> 100 µM	> 100 µM	> 100 µM	> 100 µM	> 100 µM	> 100 µM	> 100 µM	> 100 µM	> 100 µM	> 100 µM	> 100 µM	> 100 µM	> 100 µM
COc1cc(CSc2nc3ccc(Cl)cc3c(=O)n2Cc2ccccc2)cc(OC)c1OC	7 µM	> 100 µM	3.23 µM	17.7 µM	10.2 µM	> 100 µM	2.77 µM	> 100 µM	3.05 µM	43.9 µM	4.99 µM	> 100 µM	5.81 µM	39.1 µM	1.56 µM	4.05 µM	4.46 µM	> 100 µM	7.62 µM	41.3 µM
ClCc1ccccc1Cn1cnc2nc(Cl)nc(Cl)c21	1.71 µM	3.65 µM	4.35 µM	15.4 µM	1.78 µM	3.47 µM	1.07 µM	3.96 µM	0.582 µM	–	1.76 µM	4.46 µM	1.68 µM	7.75 µM	0.357 µM	> 100 µM	0.548 µM	1.33 µM	0.19 µM	1.08 µM
OCc1ccc(-c2nc(-c3ccc4c(c3)OCO4)c(-c3ccccn3)[nH]2)cc1	> 22.8 µM	> 25 µM	> 25 µM	> 25 µM	> 25 µM	> 25 µM	10.4 µM	> 25 µM	> 25 µM	> 25 µM	> 25 µM	> 25 µM	> 25 µM	> 25 µM	> 25 µM	> 25 µM	> 25 µM	> 25 µM	> 25 µM	> 25 µM
Oc1ccc(N=Nc2ccc(Br)cc2)c(O)c1	5.75 µM	75.5 µM	3.24 µM	18.3 µM	2.81 µM	16.7 µM	3.07 µM	9.29 µM	7.97 µM	> 100 µM	6.31 µM	> 100 µM	3.61 µM	20.7 µM	17.8 µM	48.9 µM	3.43 µM	17.9 µM	3.17 µM	23.6 µM
CCOC(=O)c1c(NN2CCN(CC(F)(F)F)CC2)oc(/C=C2\C=Nc3ncccc32)c1O	19.3 µM	67.5 µM	2.93 µM	19.8 µM	7.43 µM	47.8 µM	19.3 µM	57.8 µM	11 µM	29.9 µM	6.17 µM	26.4 µM	13 µM	29.4 µM	0.76 µM	11.1 µM	4.75 µM	23.7 µM	3.13 µM	18.8 µM
Nc1nc(-c2cccnc2)cc(-c2cc(-c3cccnc3)nc(N)n2)n1	–	> 100 µM	–	> 100 µM	–	> 100 µM	–	> 100 µM	–	> 100 µM	–	> 100 µM	–	> 100 µM	–	> 100 µM	–	> 100 µM	–	> 100 µM
COc1cccc2c1C(=O)c1c(O)c3c(c(O)c1C2=O)C[C@](O)(C(=O)CO)C[C@H]3O[C@@H]1C[C@@H](NC(=O)CCCN(C)C2(c3ccc(F)cc3)CC3CCC2C3)[C@H](O)[C@@H](C)O1 (stereo partly specified)	0.863 µM	1.67 µM	7.59 µM	16.4 µM	5.72 µM	15.8 µM	8.47 µM	50 µM	0.946 µM	1.72 µM	0.844 µM	1.61 µM	0.914 µM	1.76 µM	0.712 µM	1.44 µM	0.893 µM	1.89 µM	0.801 µM	1.57 µM
CCc1cc2c(c(OCC(F)(F)F)c(C(=O)NC3CCN(C(=O)CO)CC3)n2C)c(=O)n1CC(=O)c1ccccc1	> 100 µM	> 100 µM	> 100 µM	> 100 µM	> 80.5 µM	> 100 µM	> 68.4 µM	> 100 µM	70.4 µM	> 100 µM	> 72.2 µM	> 100 µM	> 100 µM	> 100 µM	> 100 µM	> 100 µM	> 100 µM	> 100 µM	33.4 µM	> 100 µM
COc1ccc(C2c3ccc4ccccc4c3Oc3ncn(CCCn4ccnc4)c(=N)c32)cc1OC (stereo unspecified)	4.55 µM	17.8 µM	5.8 µM	18.4 µM	6.04 µM	21.8 µM	3.96 µM	17.4 µM	1.79 µM	3.5 µM	9.65 µM	26.4 µM	2.12 µM	3.89 µM	2.04 µM	4.51 µM	5.49 µM	18.2 µM	3.1 µM	11 µM
CCn1nc(C2CCN(C(=O)CCO)CC2)nc1-c1cnc(N)c(-c2nnc(C(C)(C)C)o2)n1	3.17 µM	> 100 µM	0.286 µM	2.74 µM	0.245 µM	> 100 µM	14.6 µM	> 100 µM	4.78 µM	> 100 µM	53.7 µM	> 100 µM	3.77 µM	> 100 µM	2.85 µM	21.5 µM	16.7 µM	> 100 µM	3.11 µM	> 100 µM
Cc1ccc(/C(=N/NS(=O)(=O)c2cc(C)c(Cl)cc2Cl)Sc2cc(Cl)c(C)cc2S(N)(=O)=O)cc1	> 100 µM	> 100 µM	> 100 µM	> 100 µM	> 100 µM	> 100 µM	> 100 µM	> 100 µM	> 100 µM	> 100 µM	> 100 µM	> 100 µM	63.6 µM	> 100 µM	> 100 µM	> 100 µM	49.7 µM	> 100 µM	> 100 µM	> 100 µM
O=c1[nH]c(-c2ccc(Cl)c(Cl)c2)cn1-c1ccc(Cl)cc1	30.2 µM	> 100 µM	19.9 µM	41.7 µM	22.6 µM	79.5 µM	27.7 µM	> 100 µM	59.6 µM	> 100 µM	19.7 µM	35.3 µM	17 µM	39.7 µM	40.3 µM	> 100 µM	29.1 µM	> 100 µM	20.7 µM	43.9 µM
CCCCCCCCCCCCCCCCn1cc[n+](C)c1	0.329 µM	1.64 µM	0.941 µM	3.17 µM	0.201 µM	0.517 µM	1.95 µM	18.4 µM	0.707 µM	2.05 µM	0.372 µM	17.8 µM	0.357 µM	1.51 µM	0.27 µM	–	0.651 µM	1.94 µM	0.5 µM	1.91 µM
COc1ccc(Sc2[nH]c(C=O)c3ccccc23)cc1	6.1 µM	28.3 µM	4.99 µM	24.9 µM	13.8 µM	37.6 µM	11.6 µM	47.5 µM	15.1 µM	30 µM	22.4 µM	61.7 µM	14.2 µM	38.8 µM	0.664 µM	6 µM	6.25 µM	21.6 µM	12 µM	26.1 µM
Cc1nnn(C)c1-c1cnc2c3ccc(C(C)(C)O)cc3n([C@H](c3ccccc3)C3CCOCC3)c2c1	0.0907 µM	> 100 µM	< 0.01 µM	16.4 µM	< 0.02 µM	> 79.3 µM	0.26 µM	37.8 µM	1.96 µM	> 100 µM	0.033 µM	> 100 µM	0.052 µM	41.3 µM	< 0.01 µM	30.1 µM	11.2 µM	> 100 µM	0.0707 µM	21.5 µM
COc1ccc2c(n1)Sc1nc3ccccc3nc1N2	–	> 100 µM	–	> 100 µM	–	> 100 µM	–	> 100 µM	–	> 100 µM	–	> 100 µM	–	> 100 µM	–	> 100 µM	–	> 100 µM	–	> 100 µM
COc1cccc(/C=N\NC(=O)c2ccncc2)c1O	12.9 µM	> 100 µM	6.45 µM	> 100 µM	6.98 µM	> 100 µM	2.84 µM	> 100 µM	19.1 µM	> 100 µM	2.43 µM	> 100 µM	6.62 µM	88.3 µM	4.9 µM	> 100 µM	5.13 µM	> 100 µM	3.53 µM	30.6 µM
O=C(Nc1ccc(I)cc1F)c1cc(Br)ccc1O	4.01 µM	> 100 µM	0.681 µM	2.92 µM	0.412 µM	> 100 µM	0.613 µM	4.5 µM	0.393 µM	2.04 µM	0.442 µM	> 23.1 µM	0.379 µM	2 µM	3.83 µM	13.4 µM	0.865 µM	> 67.8 µM	2.19 µM	5.5 µM
O=C(Nc1ccc(Cl)c(C(F)(F)F)c1)Nc1ccc(-c2cccnc2)cc1N1CCC(CO)CC1	2.96 µM	> 100 µM	2.22 µM	6.59 µM	3.48 µM	> 100 µM	2.85 µM	9.11 µM	2.22 µM	5.71 µM	2.97 µM	> 100 µM	2.27 µM	7.36 µM	1.65 µM	3.18 µM	3.74 µM	> 100 µM	1.84 µM	4.52 µM
CC(=O)O[C@@H]1c2c(c3c(=O)c4cccc(O)c4c(=O)c=3c2=[N+]=[N-])[C@H](OC(C)=O)[C@@H](OC(C)=O)[C@]1(C)O	0.613 µM	1.23 µM and 1.35 µM	1.01 µM	2.11 µM and 2 µM	0.3 µM	0.987 µM and 1.15 µM	–	0.658 µM	0.829 µM	1.51 µM and 2.28 µM	–	4.32 µM and 2.16 µM	0.269 µM	0.929 µM and 0.972 µM	0.605 µM and 0.16 µM	1.29 µM and 0.296 µM	0.295 µM	1.05 µM and 1.17 µM	0.221 µM	0.944 µM and 0.548 µM
CC(C)(C)c1cc(C[P+](c2ccccc2)(c2ccccc2)c2ccccc2)cc(C(C)(C)C)c1O	2.5 µM	14.3 µM	1.44 µM	6.7 µM	0.437 µM	7.46 µM	9.12 µM	33.8 µM	0.637 µM	8.21 µM	0.337 µM	9.16 µM	0.291 µM	0.947 µM	0.199 µM	0.521 µM	0.593 µM	11.8 µM	1.81 µM	9.73 µM
